Holding throughout (assay): relative viability (nuclei count vs DMSO), 5 days (fraction); higher = more cells survive
Compound in the assay “XMD13-2 + Lapatinib”: C1CC1C(=O)NC2=NNC3=C2C=CC(=C3)C4=CC(=CC=C4)C(=O)NC5CC5 [XMD13-2] + CS(=O)(=O)CCNCc1ccc(-c2ccc3ncnc(Nc4ccc(OCc5cccc(F)c5)c(Cl)c4)c3c2)o1 [Lapatinib] (partner 2 µM)
The gist of the method:
(§1)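 Relative viability is defined as nuclei in treated wells over nuclei in vehicle wells. Duplicate plates were run and medians reported. Lung cancer cell lines in 1536-well plates were dosed by pin tool one day after seeding, with one drug or with a fixed anchor-drug dose plus five library-drug doses (not always all listed) in √10 steps, and nuclei were counted after 5 days.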

Compound in the assay “XMD13-2 + AZD7762”: C1CC1C(=O)NC2=NNC3=C2C=CC(=C3)C4=CC(=CC=C4)C(=O)NC5CC5 [XMD13-2] + NC(=O)Nc1cc(-c2cccc(F)c2)sc1C(=O)N[C@H]1CCCNC1 [AZD7762] (partner 0.2 µM)
The procedure, abridged: as §1

Compound in the assay “ALW-II-49-7 + Navitoclax”: Cc1ccc(C(=O)Nc2cccc(C(F)(F)F)c2)cc1Nc1cncc(C(N)=O)c1 [ALW-II-49-7] + CC1(C)CCC(c2ccc(Cl)cc2)=C(CN2CCN(c3ccc(C(=O)NS(=O)(=O)c4ccc(N[C@H](CCN5CCOCC5)CSc5ccccc5)c(S(=O)(=O)C(F)(F)F)c4)cc3)CC2)C1 [Navitoclax] (partner 0.5 µM)
The procedure, abridged:
as §1

Compound in the assay “Dasatinib + Navitoclax”: Cc1nc(Nc2ncc(C(=O)Nc3c(C)cccc3Cl)s2)cc(N2CCN(CCO)CC2)n1 [Dasatinib] + CC1(C)CCC(c2ccc(Cl)cc2)=C(CN2CCN(c3ccc(C(=O)NS(=O)(=O)c4ccc(N[C@H](CCN5CCOCC5)CSc5ccccc5)c(S(=O)(=O)C(F)(F)F)c4)cc3)CC2)C1 [Navitoclax] (partner 0.5 µM)
The gist of the method: as §1

Relative viability data for five cell lines are collected here from the supplement of paper PMC10307832.

As for NCI-H2405, the relative viability is 1.18 with XMD13-2 + Lapatinib (first compound 0.05 µM); 1 with XMD13-2 + Lapatinib (first compound 0.1581 µM); 0.95 with XMD13-2 + Lapatinib (first compound 0.5 µM); 0.957 with XMD13-2 + Lapatinib (first compound 1.581 µM); 1.09 in the assay with XMD13-2 + Lapatinib (first compound 5 µM); 0.849 with XMD13-2 + AZD7762 (first compound 0.05 µM). Further, the relative viability with XMD13-2 + AZD7762 (first compound 0.1581 µM) was 0.712; in the assay with XMD13-2 + AZD7762 (first compound 0.5 µM), 0.728; with XMD13-2 + AZD7762 (first compound 5 µM), 0.8; with ALW-II-49-7 + Navitoclax (first compound 0.08 µM), 0.761; with ALW-II-49-7 + Navitoclax (first compound 0.253 µM), 0.974; with ALW-II-49-7 + Navitoclax (first compound 0.8 µM) it was 0.779. Besides, the relative viability with ALW-II-49-7 + Navitoclax (first compound 2.53 µM) was 0.241; in the assay with ALW-II-49-7 + Navitoclax (first compound 8 µM), 0.735; in the assay with Dasatinib + Navitoclax (first compound 0.005 µM), 0.684; in the assay with Dasatinib + Navitoclax (first compound 0.01581 µM), 0.424; in the assay with Dasatinib + Navitoclax (first compound 0.05 µM) it was 0.254; with Dasatinib + Navitoclax (first compound 0.1581 µM), 0.165. Besides, the relative viability with Dasatinib + Navitoclax (first compound 0.5 µM) stood at 0.116.
For the cell line NCI-H3122, the relative viability with XMD13-2 + Lapatinib (first compound 0.05 µM) was determined as 1.04; in the assay with XMD13-2 + Lapatinib (first compound 0.1581 µM), 1.03; with XMD13-2 + Lapatinib (first compound 0.5 µM) it was 0.99; in the assay with XMD13-2 + Lapatinib (first compound 1.581 µM), 0.982; with XMD13-2 + Lapatinib (first compound 5 µM), 0.848; in the assay with XMD13-2 + AZD7762 (first compound 0.05 µM), 1.01. In addition, the relative viability was found to be 0.973 with XMD13-2 + AZD7762 (first compound 0.1581 µM); 1.1 with XMD13-2 + AZD7762 (first compound 0.5 µM); 1 in the assay with XMD13-2 + AZD7762 (first compound 1.581 µM); 0.899 with XMD13-2 + AZD7762 (first compound 5 µM); 1.06 in the assay with ALW-II-49-7 + Navitoclax (first compound 0.08 µM); 1.06 with ALW-II-49-7 + Navitoclax (first compound 0.253 µM). Also, the relative viability with ALW-II-49-7 + Navitoclax (first compound 0.8 µM) was 1.07; with ALW-II-49-7 + Navitoclax (first compound 2.53 µM), 1.09; with ALW-II-49-7 + Navitoclax (first compound 8 µM) it was 1.05; with Dasatinib + Navitoclax (first compound 0.005 µM) it was 1.03; with Dasatinib + Navitoclax (first compound 0.01581 µM) it was 1.01; with Dasatinib + Navitoclax (first compound 0.05 µM), 1.04. Moreover, the relative viability in the assay with Dasatinib + Navitoclax (first compound 0.1581 µM) was determined as 0.977; in the assay with Dasatinib + Navitoclax (first compound 0.5 µM) it was 0.792.
PC-3 [JPC-3]: the relative viability was found to be 0.453 with XMD13-2 + Lapatinib (first compound 0.05 µM); 0.467 with XMD13-2 + Lapatinib (first compound 0.1581 µM); 0.437 in the assay with XMD13-2 + Lapatinib (first compound 0.5 µM); 0.498 with XMD13-2 + Lapatinib (first compound 1.581 µM); 0.426 with XMD13-2 + Lapatinib (first compound 5 µM); 0.818 with XMD13-2 + AZD7762 (first compound 0.05 µM). For the same cell line, the relative viability in the assay with XMD13-2 + AZD7762 (first compound 0.1581 µM) was found to be 0.868; with XMD13-2 + AZD7762 (first compound 0.5 µM), 0.9; in the assay with XMD13-2 + AZD7762 (first compound 5 µM) it was 0.718; in the assay with ALW-II-49-7 + Navitoclax (first compound 0.08 µM) it was 0.693; with ALW-II-49-7 + Navitoclax (first compound 0.253 µM) it was 0.891; with ALW-II-49-7 + Navitoclax (first compound 0.8 µM), 0.757. Further, the relative viability is 0.816 with ALW-II-49-7 + Navitoclax (first compound 2.53 µM); 0.82 in the assay with ALW-II-49-7 + Navitoclax (first compound 8 µM); 0.785 in the assay with Dasatinib + Navitoclax (first compound 0.005 µM); 0.818 with Dasatinib + Navitoclax (first compound 0.01581 µM); 0.951 with Dasatinib + Navitoclax (first compound 0.05 µM); 0.788 in the assay with Dasatinib + Navitoclax (first compound 0.1581 µM). In the assay with Dasatinib + Navitoclax (first compound 0.5 µM), the relative viability worked out at 0.456.
As to PC-14, the relative viability was found to be 0.38 with XMD13-2 + Lapatinib (first compound 0.05 µM); 0.324 with XMD13-2 + Lapatinib (first compound 0.1581 µM); 0.39 in the assay with XMD13-2 + Lapatinib (first compound 0.5 µM); 0.337 with XMD13-2 + Lapatinib (first compound 1.581 µM); 0.345 in the assay with XMD13-2 + Lapatinib (first compound 5 µM); 0.392 with XMD13-2 + AZD7762 (first compound 0.05 µM). Also, the relative viability turned out to be 0.337 with XMD13-2 + AZD7762 (first compound 0.1581 µM); 0.464 with XMD13-2 + AZD7762 (first compound 0.5 µM); 0.329 with XMD13-2 + AZD7762 (first compound 1.581 µM); 0.446 in the assay with XMD13-2 + AZD7762 (first compound 5 µM); 1.04 with ALW-II-49-7 + Navitoclax (first compound 0.08 µM); 0.92 in the assay with ALW-II-49-7 + Navitoclax (first compound 0.253 µM). In addition, the relative viability with ALW-II-49-7 + Navitoclax (first compound 0.8 µM) came out at 0.923; in the assay with ALW-II-49-7 + Navitoclax (first compound 2.53 µM), 0.911; with ALW-II-49-7 + Navitoclax (first compound 8 µM), 0.86; in the assay with Dasatinib + Navitoclax (first compound 0.005 µM) it was 0.976; with Dasatinib + Navitoclax (first compound 0.01581 µM), 0.982; in the assay with Dasatinib + Navitoclax (first compound 0.05 µM) it was 1.09. Also, the relative viability was found to be 0.647 in the assay with Dasatinib + Navitoclax (first compound 0.1581 µM) and 0.0883 with Dasatinib + Navitoclax (first compound 0.5 µM).
With RERF-LC-KJ, the relative viability in the assay with XMD13-2 + Lapatinib (first compound 0.05 µM) was found to be 0.912; with XMD13-2 + Lapatinib (first compound 0.1581 µM), 0.841; in the assay with XMD13-2 + Lapatinib (first compound 0.5 µM) it was 0.858; with XMD13-2 + Lapatinib (first compound 1.581 µM), 0.816; with XMD13-2 + Lapatinib (first compound 5 µM), 0.78; with XMD13-2 + AZD7762 (first compound 0.05 µM), 1.07. Also, the relative viability with XMD13-2 + AZD7762 (first compound 0.1581 µM) came out at 0.874; in the assay with XMD13-2 + AZD7762 (first compound 0.5 µM) it was 1.22; in the assay with XMD13-2 + AZD7762 (first compound 1.581 µM), 0.922; in the assay with XMD13-2 + AZD7762 (first compound 5 µM), 0.956; with ALW-II-49-7 + Navitoclax (first compound 0.08 µM), 0.876; in the assay with ALW-II-49-7 + Navitoclax (first compound 0.253 µM), 1.27. The relative viability with ALW-II-49-7 + Navitoclax (first compound 0.8 µM) was determined as 0.938; with ALW-II-49-7 + Navitoclax (first compound 2.53 µM), 1.05; with ALW-II-49-7 + Navitoclax (first compound 8 µM) it was 0.866; with Dasatinib + Navitoclax (first compound 0.005 µM) it was 1.11; in the assay with Dasatinib + Navitoclax (first compound 0.01581 µM) it was 0.537; in the assay with Dasatinib + Navitoclax (first compound 0.05 µM), 0.855. Moreover, the relative viability with Dasatinib + Navitoclax (first compound 0.1581 µM) came out at 0.669; with Dasatinib + Navitoclax (first compound 0.5 µM), 0.656.
